The source of these data is patent US12599676B2, “Cytotoxic imidazo[1,2-A]pyridine compounds and their use in therapy” (MyricX Pharma Limited, priority 2022, dated 2026).

In data set [1] the test system is CA46 (human B cell lymphoma). The data set can be described thus: Cell cytotoxicity CellTiter-Glo, CA46. It counts as cell-based. How it is done:
Cells were seeded in 96-well microplates and treated with compounds or cisplatin (as a positive control) at 9 increasing concentrations in technical triplicate. […] On day 1, 90 μL of various cell suspensions with the number of cells ranging from 5000-8000 cells/well were seeded into wells of a 96-well plate (Corning). The number of cells to be seeded was previously determined. • 2. All 96-wells plates with cells were placed in an incubator overnight at 37° C. with 5% CO2. • 3. On day 2, cells were observed under a microscope ensuring the cells treated with vehicle control were in good condition. • 4. A dilution series of the test compounds and cisplatin were prepared at 10× the final concentrations required. 10 μL/well of 10× compound solution was added to the corresponding plates. The final volume was 100 μL/well for all the plates. Final DMSO concentration was 0.1%. • 5. On day 5 (after 72 hours of incubation), 50 μL of CTG reagent was added to each well. • 6. Contents were mixed for 5 minutes on an orbital shaker to facilitate cell lysis. • 7. The plate was allowed to incubate at room temperature for 10 minutes to stabilize luminescent signals. […]
(Cellular ATP, detected with luciferase, serves as a proxy for viable cell number.)

A further data set concerns mouse hepatocytes. As to the kind of experiment: Hepatocyte metabolic stability, mouse. It counts as in vitro ADME. As to the method: Biological Example 6: Rat hepatocyte half life Certain Example compounds and Comparator Compound 1 were tested for metabolic stability in a metabolic assay using mouse- and rat-derived hepatocytes. Compounds having good metabolic stability in the assay are expected to be especially useful as agents for preventing and/or treating cancer, by having a long half-life in human patients.
Frozen pooled rat and mouse hepatocytes obtained from LifeTechnologies were thawed and purified according to the manufacturer's instructions. The test compound (4 mM) in DMSO was diluted with acetonitrile to provide a 100 μM sub-stock then further diluted with pH 7.4 Krebs-Henseleit buffer (supplemented with CaCl2, NaHCO3, HEPES, fructose and glycine) to provide a 2 μM working solution. 25 μL of working solution was incubated at 37° C., treated with 25 μL of rat or mouse hepatocyte suspension (containing 1×10^6 cells/mL) and incubated at 37° C. with 5% CO2 level at 95% relative humidity. Wells were incubated for an appropriate time (0, 15, 30, 45, 60 and 75 min) then quenched with 250 μL of acetonitrile containing reference standards diltiazem, 7-ethoxycoumarin and propranolol). The plates were shaken, sonicated for 5 min then cooled to 4° C. until all sampling was complete. All plates were centrifuged at 4000 rpm for 20 min to pellet the debris. 110 μL supernatant was diluted 110 μL water and quantitated using LC-MS/MS.
A linear regression curve was fitted to a plot of natural logarithm (In) of AUC against time. The T-half (min)=0.693/slope

Data set [2] in a line: Caco-2 cell permeability assay. The class given is in vitro ADME. Particulars: human, Caco-2, pH 7.4, basal to apical Papp, pH 7.4, 2.5 h. The method in brief:
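Caco-2 monolayers grown 10 days were dosed at 2 μM (1% DMSO) on the donor side in HBSS/10 mM HEPES pH 7.4, for both AB and BA directions, then incubated 2.5 h at 37 °C without shaking. Donor and acceptor samples were quantified by LC-MS/MS to give Papp. Wells that failed a Lucifer Yellow integrity check (>1% passage) were excluded.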
For orientation: Passage across Caco-2 layers is used to estimate intestinal permeability.

Data set [3] relates to BT474 breast cancer cells. As to the kind of experiment: Orthotopic BT474 breast cancer xenograft model. The class given is in vivo, NOD/SCID mice. As to conditions: 2.0 mg/kg IV, 2 days dosing then 5 day holiday (Group 6), stopped at day 13.
Method: NOD/SCID mice were implanted with estrogen pellets (17β-estradiol, 60 day release, 0.36 mg) subcutaneously in the right flank one day before the tumour inoculation. On day −8 each mouse was then injected in the right mammary fat pad with 1×10^7 viable BT474 breast cancer cells resuspended in 0.2 mL of Phosphate Buffered Saline mixed with matrigel (1:1). Mice were assigned to treatment groups when tumour volumes averaged 149.78 mm^3 on study day 0. […] The study was terminated on Study Day 35.
Each group was comprised of 10 mice. Tumour volumes in mice were measured three times per week and tumour volume was calculated using the formula 0.5 (L×W^2). […] Statistical analyses were carried out on tumour readings for Groups 1, 2, 3, 4 and 5 up to Study Day 23 (after this point >50% of the animals within one of the study groups were lost; Group 2) using two-way ANOVA, or a Mixed-Effects model was fitted when values were missing from groups (PRISM GraphPad Software Inc.).
Tumour Growth Inhibition, ΔTGI %=((mean(C)−mean (CO))−(mean(T)−mean(TO)))/(mean(C)−mean(CO))×100% where T is the mean tumour volume on the measurement day and TO is the mean tumour volume of the treated group on Study Day 0. C is the mean tumour volume of the control Group 1 mice on the measurement day and CO is the mean tumour volume on Study Day 0.

As usually defined, the IC50 is the midpoint of a concentration-inhibition curve. Low values mean higher potency, high ones lower potency. Usually Papp B→A stands for how fast a substance crosses the layer from the basolateral side. In turn, `Cc1c(CCOc2cc(Cl)ccc2-c2ccc3ncc(CCN)n3c2)c(C(=O)N(C)C)nn1C` [Comparator Compound 1, 4-(2-{2-[3-(2-aminoethyl)imidazo[1,2-a]pyridin-6-yl]-5-chlorophenoxy}ethyl)-N,N,1,5-tetramethyl-1H-pyrazole-3-carboxamide, reference compound] returned an IC50 in data set [1] of 0.613 µM. For the same molecule, the “mHeps t^1/2” value with mouse hepatocytes is given as 127.68 min. The molecule further came in with a Papp B→A at 2.5 h, 2 μM in data set [2] of 91 nm/s.
For the molecule `CNCc1cnc2ccc(-c3ccc(F)c(F)c3OCCc3c(C(O)C(C)(C)C)nn(C)c3C)cn12` (single isomer, unassigned) [Example 12, 1-(4-(2-(2,3-difluoro-6-(3-((methylamino)methyl)imidazo[1,2-a]pyridin-6-yl)phenoxy)ethyl)-1,5-dimethyl-1H-pyrazol-3-yl)-2,2-dimethylpropan-1-ol], the tumour size entry in data set [3] is given as “reduced tumour size”.
